Reference: patent US11053204B2, “Pyrimidinyloxy benzene derivatives as herbicides” (FMC Corporation, priority 2015, dated 2021)

Columns and labels:
Type in all cases: in vivo
[1] = system: johnsongrass (Sorghum halepense); assay: Test C preemergence, plant response rating
[2] = system: galium (catchweed bedstraw, Galium aparine); assay: Test C preemergence, plant response rating
[3] = system: surinam grass (Brachiaria decumbens); assay: Test C preemergence, plant response rating
[4] = system: windgrass (Apera spica-venti); assay: Test C postemergence, plant response rating
Summary of the method: (§1)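 Preemergence: seeds sown in loam–sand blend or silt loam and sprayed with test chemicals in a non-phytotoxic surfactant-containing solvent. Postemergence: potted plants at 2–18 cm (1–4-leaf stage) sprayed with the same formulation. After 13–15 d in greenhouse, visual rating versus controls on 0 (no effect) to 100 (complete control) scale.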

[5] = system: field violet (Viola arvensis); assay: Test C postemergence, plant response rating; details: for Field Violet plant response rating: scale 0 to 100 (0 no effect, 100 complete control)
Summary of the method: as §1

[6] = system: Canada thistle (Cirsium arvense); assay: Test C postemergence, plant response rating; details: for Canada Thistle plant response rating: scale 0 to 100 (0 no effect, 100 complete control)
Summary of the method: as §1

[7] = system: buckwheat, wild (wild buckwheat, Polygonum convolvulus); assay: Test C postemergence, plant response rating; details: for Buckwheat, Wild plant response rating: scale 0 to 100 (0 no effect, 100 complete control)
Summary of the method: as §1

[8] = system: field poppy (Papaver rhoeas); assay: Test C postemergence, plant response rating; details: for Field Poppy plant response rating: scale 0 to 100 (0 no effect, 100 complete control)
Summary of the method: as §1

[9] = system: geranium, cutleaf (cutleaf geranium, Geranium dissectum); assay: Test C postemergence, plant response rating; details: for Geranium, Cutleaf plant response rating: scale 0 to 100 (0 no effect, 100 complete control)
Summary of the method: as §1

[10] = system: nightshade (eastern black nightshade, Solanum ptycanthum); assay: Test C postemergence, plant response rating; details: for Nightshade plant response rating: scale 0 to 100 (0 no effect, 100 complete control)
Summary of the method: as §1

[11] = system: pigweed, palmer (palmer pigweed, Amaranthus palmeri); assay: Test C postemergence, plant response rating; details: for Pigweed, Palmer plant response rating: scale 0 to 100 (0 no effect, 100 complete control)
Summary of the method: as §1

[12] = system: speedwell (bird's-eye speedwell, Veronica persica); assay: Test C postemergence, plant response rating; details: for Speedwell plant response rating: scale 0 to 100 (0 no effect, 100 complete control)
Summary of the method: as §1

[13] = system: barnyardgrass (Echinochloa crus-galli); assay: Test C preemergence, plant response rating; details: Preemergence
[14] = system: oat, wild (wild oat Avena fatua); assay: Test C preemergence, plant response rating
[15] = system: nightshade (eastern black nightshade, Solanum ptycanthum); assay: Test C preemergence, plant response rating
[16] = system: windgrass (Apera spica-venti); assay: Test C preemergence, plant response rating
[17] = system: pigweed, palmer (palmer pigweed, Amaranthus palmeri); assay: Test C preemergence, plant response rating
[18] = system: wild poinsettia (Euphorbia heterophylla); assay: Test C preemergence, plant response rating

CCCCC(=O)c1c(Br)cccc1Oc1ncc(Cl)cn1 [Compound 79]
Plant response rating, Johnsongrass ([1]; 16 g ai/ha, scale 0 to 100): 0
Plant response rating, Johnsongrass ([1]; 31 g ai/ha, scale 0 to 100): 5
Plant response rating, Johnsongrass ([1]; 62 g ai/ha, scale 0 to 100): 50
Plant response rating, Johnsongrass ([1]; 125 g ai/ha, scale of 0 to 100): 70
Plant response rating, Galium ([2]; 16 g ai/ha, scale 0 to 100): 0
Plant response rating, Galium ([2]; 31 g ai/ha, scale 0 to 100): 0
Plant response rating, Galium ([2]; 62 g ai/ha, scale of 0 to 100): 70
Plant response rating, Galium ([2]; 125 g ai/ha, scale of 0 to 100): 5
Plant response rating, Surinam Grass ([3]; 16 g ai/ha, scale 0 to 100): 5
Plant response rating, Surinam Grass ([3]; 31 g ai/ha, scale 0 to 100): 30
Plant response rating, Surinam Grass ([3]; 62 g ai/ha, scale 0 to 100): 50
Plant response rating, Surinam Grass ([3]; 125 g ai/ha, scale of 0 to 100): 85
Plant response rating, Windgrass ([4]; 16 g ai/ha, scale of 0 to 100): 20
Plant response rating, Windgrass ([4]; 31 g ai/ha, scale 0 to 100): 35
Windgrass plant response rating ([4]; 125 g ai/ha, scale 0 to 100 (0 no effect, 100 complete control)): 30
Plant response rating, Field Violet ([5]; 16 g ai/ha, scale of 0 to 100): 70
Plant response rating, Field Violet ([5]; 31 g ai/ha, scale 0 to 100): 75
Field Violet plant response rating ([5]; 62 g ai/ha): 85
Field Violet plant response rating ([5]; 125 g ai/ha): 90
Plant response rating, Canada Thistle ([6]; 16 g ai/ha, scale of 0 to 100): 55
Plant response rating, Canada Thistle ([6]; 31 g ai/ha, scale 0 to 100): 65
Canada Thistle plant response rating ([6]; 62 g ai/ha): 70
Canada Thistle plant response rating ([6]; 125 g ai/ha): 100
Plant response rating, Buckwheat, Wild ([7]; 16 g ai/ha, scale of 0 to 100): 75
Plant response rating, Buckwheat, Wild ([7]; 31 g ai/ha, scale 0 to 100): 80
Buckwheat, Wild plant response rating ([7]; 62 g ai/ha): 85
Buckwheat, Wild plant response rating ([7]; 125 g ai/ha): 90
Plant response rating, Field Poppy ([8]; 16 g ai/ha, scale of 0 to 100): 85
Plant response rating, Field Poppy ([8]; 31 g ai/ha, scale 0 to 100): 98
Field Poppy plant response rating ([8]; 62 g ai/ha): 100
Field Poppy plant response rating ([8]; 125 g ai/ha): 100
Plant response rating, Geranium, Cutleaf ([9]; 16 g ai/ha, scale of 0 to 100): 45
Plant response rating, Geranium, Cutleaf ([9]; 31 g ai/ha, scale 0 to 100): 50
Geranium, Cutleaf plant response rating ([9]; 62 g ai/ha): 55
Geranium, Cutleaf plant response rating ([9]; 125 g ai/ha): 65
Plant response rating, Nightshade ([10]; 16 g ai/ha, scale of 0 to 100): 90
Plant response rating, Nightshade ([10]; 31 g ai/ha, scale 0 to 100): 95
Nightshade plant response rating ([10]; 62 g ai/ha): 95
Nightshade plant response rating ([10]; 125 g ai/ha): 100
Plant response rating, Pigweed, Palmer ([11]; 16 g ai/ha, scale of 0 to 100): 60
Plant response rating, Pigweed, Palmer ([11]; 31 g ai/ha, scale 0 to 100): 80
Pigweed, Palmer plant response rating ([11]; 62 g ai/ha): 70
Pigweed, Palmer plant response rating ([11]; 125 g ai/ha): 85
Plant response rating, Speedwell ([12]; 16 g ai/ha, scale of 0 to 100): 85
Plant response rating, Speedwell ([12]; 31 g ai/ha, scale 0 to 100): 90
Speedwell plant response rating ([12]; 62 g ai/ha): 98
Speedwell plant response rating ([12]; 125 g ai/ha): 100
Plant response rating, Barnyardgrass ([13]; 62 g ai/ha, scale of 0 to 100): 75
Plant response rating, Barnyardgrass ([13]; 125 g ai/ha, scale of 0 to 100): 95
Plant response rating, Barnyardgrass ([13]; 16 g ai/ha, scale 0 to 100): 5
Plant response rating, Barnyardgrass ([13]; 31 g ai/ha, scale 0 to 100): 60
Plant response rating, Oat, Wild ([14]; 16 g ai/ha, scale 0 to 100): 0
Plant response rating, Oat, Wild ([14]; 31 g ai/ha, scale 0 to 100): 0
Plant response rating, Oat, Wild ([14]; 62 g ai/ha, scale 0 to 100): 5
Plant response rating, Oat, Wild ([14]; 125 g ai/ha, scale of 0 to 100): 40
Plant response rating, Nightshade ([15]; 16 g ai/ha, scale 0 to 100): 30
Plant response rating, Nightshade ([15]; 31 g ai/ha, scale 0 to 100): 65
Plant response rating, Nightshade ([15]; 62 g ai/ha, scale 0 to 100): 80
Plant response rating, Nightshade ([15]; 125 g ai/ha, scale of 0 to 100): 95
Plant response rating, Windgrass ([16]; 16 g ai/ha, scale 0 to 100): 60
Plant response rating, Windgrass ([16]; 31 g ai/ha, scale 0 to 100): 80
Plant response rating, Windgrass ([16]; 62 g ai/ha, scale 0 to 100): 100
Plant response rating, Windgrass ([16]; 125 g ai/ha, scale of 0 to 100): 100
Plant response rating, Pigweed, Palmer ([17]; 16 g ai/ha, scale 0 to 100): 75
Plant response rating, Pigweed, Palmer ([17]; 31 g ai/ha, scale 0 to 100): 85
Plant response rating, Pigweed, Palmer ([17]; 62 g ai/ha, scale 0 to 100): 90
Plant response rating, Pigweed, Palmer ([17]; 125 g ai/ha, scale of 0 to 100): 90
Plant response rating, Poinsettia, Wild ([18]; 16 g ai/ha, scale 0 to 100): 0
Plant response rating, Poinsettia, Wild ([18]; 31 g ai/ha, scale 0 to 100): 0
Plant response rating, Poinsettia, Wild ([18]; 62 g ai/ha, scale 0 to 100): 10
Plant response rating, Poinsettia, Wild ([18]; 125 g ai/ha, scale of 0 to 100): 40
